Measurements published in patent publication US20250000881A1, “TREATMENT OF TREATMENT RESISTANT […] PSILOCYBIN” (COMPASS […], priority 2021, published 2025).

Test system: adult subjects with TRD
Assay: Phase 2b randomised double-blind trial in TRD: MADRS total score, response, remission, sustained response
Format: in vivo, human
Details: for Protocol-defined sustained response (MADRS response criteria from week 3 until week 12): up to week 12
Protocol: Studies with more rigorous designs are needed to better the therapeutic potential of psilocybin in treatment-resistant depression (TRD). The aim of this study was to assess the effectiveness of 3 different doses of psilocybin (1 mg, 10 mg, and 25 mg) in TRD.
This was a Phase 2b, international multicentre, randomized, fixed dose, double-blind trial. The study population included adult men and women, 18 years of age and older, with TRD. […] Augmentation counts as a second treatment, provided it was approved for the adjunctive treatment of MDD in that country.
The treatment period was determined the optimal therapeutic dose; 233 subjects were randomised in an approximately 1:1:1 ratio to receive 1 mg psilocybin (79 subjects), 10 mg psilocybin (75 subjects), or 25 mg psilocybin (79 subjects). Average patient baseline MADRS values were 31.9 in the 25 mg group, 33.0 in the 10 mg group, and 32.7 in the 1 mg group. This represents moderate to severe depression (≥31=cut-off for severe depression based on MADRS).
The primary objective of this study was to evaluate the efficacy of psilocybin (25 mg or 10 mg) compared to 1 mg, administered under supportive conditions to adult subjects with TRD, in improving depressive symptoms, as assessed by the change in the Montgomery-Asberg Depression Rating Scale (MADRS) total score from baseline. Baseline is defined as the assessment score obtained on Day-1. The primary time point is week 3; this variable was analyzed for the change from Baseline to day 1, and weeks 1, 3, 6, 9, and 12 of the study.
Additional objectives of this study were to assess the efficacy of psilocybin compared to 1 mg psilocybin on the: • (a) proportion of subjects with response defined as a ≥50% decrease in MADRS total score from baseline to week 3. This was assessed at day 1 and at weeks 1, 6, 9, and 12 of the study. • (b) proportion of subjects who have a sustained response at week 12. Sustained response is defined as the proportion of patients fulfilling response criteria at any visit up to and including week 3, that also fulfils response criteria at all subsequent visits up to and including week 12. Response is defined as ≥50% decrease in MADRS total score from baseline.
Subjects were randomized to the appropriate therapy after it was confirmed at baseline (Visit 2) that the subject remained eligible to participate in the study. Randomization was stratified by country. Each subject was assigned 1 treatment bottle containing 5 capsules packaged in a double-blind fashion, depending on the randomized treatment arm, the bottle will contain 1 of the following: • (a) 10-mg treatment bottle: 2×5-mg capsules and 3×placebo capsules; • (b) 25-mg treatment bottle: 5×5-mg capsules; or • (c) 1-mg treatment bottle: 1×1-mg capsule and 4×placebo capsules.
The change from baseline in MADRS total score at week 3 will be evaluated with a mixed effects model for repeated measures analysis. The model includes treatment, visit, study site, prior psychedelic experience, treatment by visit interaction, subject as a random effect, and baseline MADRS total score. Comparison of the psilocybin optimal dose versus 1 mg psilocybin was performed at the 0.05 testing level. A sensitivity analysis was performed on the primary mixed model repeated measures model adding treatment by study site or country interaction into the model. If it was significant (at the 10% level), then further investigations of sites were performed.
[…] additional efficacy endpoints that are dichotomous variables (proportion of subjects who are responders, remitters, and sustained responders) were analyzed using the Cochran Mantel Haenszel chi square test, stratified by country, to compare the psilocybin optimal therapeutic dose versus 1 mg psilocybin. A stepdown procedure to correct for multiplicity was employed. […]

SMILES: CN(C)CCc1c[nH]c2cccc(OP(=O)(O)O)c12 [COMP360, psilocybin]
- MADRS total score change from baseline, LS mean (1 mg (N = 79), Day 2): −9.0
- MADRS total score change from baseline, LS mean (1 mg (N = 79), Week 1): −6.8
- MADRS total score change from baseline, LS mean (1 mg (N = 79), Week 3): −5.5
- MADRS total score change from baseline, LS mean (1 mg (N = 79), Week 6): −6.3
- MADRS total score change from baseline, LS mean (1 mg (N = 79), Week 9): −5.4
- MADRS total score change from baseline, LS mean (1 mg (N = 79), Week 12): −6.0
- Sustained response (MADRS response at week 3 and week 12 and at least one of week 6 and week 9) (1 mg group): 10.1%
- Protocol-defined sustained response (MADRS response criteria from week 3 until week 12) (1 mg group): 10.1%
- MADRS total score change from baseline, LS mean (10 mg (N = 75), Day 2): −12.0
- MADRS total score change from baseline, LS mean (10 mg (N = 75), Week 1): −9.1
- MADRS total score change from baseline, LS mean (10 mg (N = 75), Week 3): −7.9
- MADRS total score change from baseline, LS mean (10 mg (N = 75), Week 6): −6.0
- MADRS total score change from baseline, LS mean (10 mg (N = 75), Week 9): −6.1
- MADRS total score change from baseline, LS mean (10 mg (N = 75), Week 12): −5.7
- MADRS total score change from baseline, LS mean diff vs 1 mg (10 mg vs 1 mg, Day 2): −3.0
- MADRS total score change from baseline, LS mean diff vs 1 mg (10 mg vs 1 mg, Week 1): −2.2
- MADRS total score change from baseline, LS mean diff vs 1 mg (10 mg vs 1 mg, Week 3): −2.4
- MADRS total score change from baseline, LS mean diff vs 1 mg (10 mg vs 1 mg, Week 6): 0.3
- MADRS total score change from baseline, LS mean diff vs 1 mg (10 mg vs 1 mg, Week 9): −0.7
- MADRS total score change from baseline, LS mean diff vs 1 mg (10 mg vs 1 mg, Week 12): 0.3
- MADRS total score change from baseline, LS mean (25 mg (N = 79), Day 2): −15.0
- MADRS total score change from baseline, LS mean (25 mg (N = 79), Week 1): −13.1
- MADRS total score change from baseline, LS mean (25 mg (N = 79), Week 3): −12.0
- MADRS total score change from baseline, LS mean (25 mg (N = 79), Week 6): −11.7
- MADRS total score change from baseline, LS mean (25 mg (N = 79), Week 9): −9.4
- MADRS total score change from baseline, LS mean (25 mg (N = 79), Week 12): −9.6
- Sustained response (MADRS response at week 3 and week 12 and at least one of week 6 and week 9) (25 mg group): 24.1%
- Protocol-defined sustained response (MADRS response criteria from week 3 until week 12) (25 mg group): 20.3%
- MADRS total score change from baseline, LS mean diff vs 1 mg (25 mg vs 1 mg, Day 2): −5.9
- MADRS total score change from baseline, LS mean diff vs 1 mg (25 mg vs 1 mg, Week 1): −6.3
- MADRS total score change from baseline, LS mean diff vs 1 mg (25 mg vs 1 mg, Week 3 (primary endpoint)): −6.6
- MADRS total score change from baseline, LS mean diff vs 1 mg (25 mg vs 1 mg, Week 6): −5.3
- MADRS total score change from baseline, LS mean diff vs 1 mg (25 mg vs 1 mg, Week 9): −4.0
- MADRS total score change from baseline, LS mean diff vs 1 mg (25 mg vs 1 mg, Week 12): −3.6
